# In patent US7776882B2, “2-amino-3,4-dihydro-quinoline derivatives useful as inhibitors of β-secretase (BACE)” (priority 2006, dated 2010):
# How the values were obtained:
# human BACE-1 = biological target: T1, human BACE-1 (Homo sapiens, UniProt P56817); experiment: In Vitro BACE Assay run by CEREP (Example 14); assay type: biochemical; conditions: recombinant enzyme, 60 min at 37° C., pH 4.5; for % Inhibition 1 μM / inhibition at 1 µM: 1 μM compound; for inhibition at 0.3 µM / % Inhibition 0.3 μM: 0.3 μM compound
# T1 construct: purchased CEREP (contract assay) 761-B
# T1 sequence (P56817 46-501): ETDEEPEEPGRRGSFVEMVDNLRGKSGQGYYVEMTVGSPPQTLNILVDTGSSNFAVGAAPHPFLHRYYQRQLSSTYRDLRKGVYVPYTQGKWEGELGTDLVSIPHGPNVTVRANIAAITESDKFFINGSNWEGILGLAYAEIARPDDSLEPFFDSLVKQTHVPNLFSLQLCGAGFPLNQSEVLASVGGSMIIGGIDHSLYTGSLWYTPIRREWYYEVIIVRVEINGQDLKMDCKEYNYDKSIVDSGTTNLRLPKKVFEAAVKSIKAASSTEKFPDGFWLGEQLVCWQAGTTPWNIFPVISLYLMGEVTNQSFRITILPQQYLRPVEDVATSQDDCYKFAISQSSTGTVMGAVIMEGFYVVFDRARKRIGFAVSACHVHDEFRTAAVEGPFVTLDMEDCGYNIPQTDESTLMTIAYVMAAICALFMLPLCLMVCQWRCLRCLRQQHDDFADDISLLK
# Procedure: This assay was run by CEREP (Catalog Ref. 761-B, Referred to SOP No. 1C131; ERMOLIEFF, J., LOY, J. A., KOELSCH, G. and TANG, J., Proteolytic activation of recombinant pro-memapsin 2 (pro-BACE) studied with new fluorogenic substrates, Biochemistry, (2000) Vol. 39, p. 12450).
# More specifically the assay, run at 50 μL in a 96 well plate, evaluated the effect of test compound on the activity of the human BACE-1 quantified by measuring the formation of Mca-S-E-V-N-L-NH2 from Mca-S-E-V-N-L-D-A-E-F-R-K(Dnp)-R-R-NH2, using a recombinant enzyme.
# The test compound, reference compound or water (control) was added to a buffer containing 0.09 M sodium acetate (pH 4.5) and 0.25 μg BACE-1. Compound interference with the fluorimetric detection method due to autofluorescence was then checked by measurements at the wavelengths defined to evaluate the enzyme activity. Thereafter, the reaction was initiated by adding 7.5 μM of the substrate Mca-S-E-V-N-L-D-A-E-F-R-K(Dnp)-R-R-NH2 and the mixture was incubated for 60 min at 37° C. For control basal measurement, the substrate was omitted from the reaction mixture. Immediately after the incubation, the fluorescence intensity emitted by the reaction product Mca-S-E-V-N-L-NH2 was measured at λex=320 nm and λem=405 nm using a microplate reader (Ultra, Tecan). The standard inhibitory reference compound was OM99-2, which was tested in each experiment at several concentrations to obtain an inhibition curve from which its IC50 value was calculated.
# β-secretase (BACE) = biological target: T2, β-secretase (BACE) (Homo sapiens, UniProt P56817); experiment: In Vitro BACE FS1 % Inhibition Assay (Example 10); assay type: biochemical; conditions: FS1 substrate, values below about 25% (including negative) within noise; for % Inhibition (Example 10) @ 0.3 μM: 0.3 μM compound; for % Inhibition (Example 10) @ 1 μM: 1 μM compound; for % Inhibition (Example 10) @ 3 μM: 3 μM compound
# T2 construct: purchased Panvera
# T2 sequence (P56817 46-501): as above
# Procedure: The following assay buffers were prepared and used in this assay: (1) enzyme assay buffer (0.05 M sodium acetate, pH5, 0.1% PEG8000 (w/v)), (2) substrate assay buffer (0.05 M sodium acetate, pH5), and (3) compound vehicle (30% DMSO in 50 mM HEPES, pH 7.4).
# The FS1-substrate stock solution was prepared in DMSO as a 10 mg/mL solution. The FS1-substrate working solution was prepared by diluting the 10 mg/mL stock solution with substrate assay buffer to a final concentration of 300 μg/mL. The β-secretase (BACE) working solution was prepared by diluting a 0.83 mg/mL BACE stock solution with enzyme assay buffer to a final concentration of 4 μg/mL.
# Test compounds were dissolved in DMSO to 10 mM. Compounds were further diluted in vehicle to various concentrations in the range of 405 μM to 4.05 μM (13.5×final compound concentration in screening plate).
# The screening procedure for this assay was as follows: 15 μL of BACE working solution was pipetted into each well of a 96-well plate. To each well was then pipetted 2 μL of test compound at the selected concentration. Test compound and BACE were then mixed with a pipettor and incubated for 20 min at room temperature. To each well was then added 10 μL of the FS1 substrate working solution. The plates were then incubated for 1 hour at room temperature. The fluorescence for each well was then measured on an LJL analyst (Ex 360 nm/Em 530 nm).
# The procedure for the blank (negative control) was as follows. 15 μL of assay buffer was pipetted into each well to be used as a blank control. To each well was then added 2 μL of vehicle and 10 μL of FS1-substrate working solution. The plates were then incubated for 1 hour at room temperature. The fluorescence was measured on an LJL analyst (Ex 360 nm/Em 530 nm).
# The procedure for the positive control was as follows: 15 μL of BACE working solution was pipetted into each well to be used as a positive control. To each well was then pipetted 2 μL of vehicle. Vehicle and BACE were then mixed with a pipettor and incubated for 20 min at room temperature. To each well was then added 10 μL of the FS1 substrate working solution. The plates were then incubated for 1 hour at room temperature. The fluorescence (Fl) was then measured on an LJL analyst (Ex 360 nm/Em 530 nm).
# For test compounds, % inhibition was determined at each concentration as follows: […]
% Inhibition (Example 10) @ 0.3 μM (β-secretase (BACE)),% Inhibition (Example 10) @ 1 μM (β-secretase (BACE)),% Inhibition (Example 10) @ 3 μM (β-secretase (BACE)),inhibition at 1 µM (human BACE-1),IC50 (human BACE-1),Structure (SMILES),other results
,,,,,Nc1nc2ccc(Oc3ccccc3)cc2cc1C(CCC(=O)NC1CN2CCC1CC2)C1CCOCC1 (mixture of isomers) [compound 52],% Inhibition 1 μM (human BACE-1): 6%
14%,9%,42%,,,Nc1nc2ccc(Oc3ccccc3)cc2cc1CCNC(=O)C1CCCCC1 [compound 4],
22%,41%,37%,,,COCCNC(=O)CCc1cc2cc(Oc3ccccc3)ccc2nc1N [compound 5],
−11%,−13%,−0.3%,,,CCN(CC)CCNC(=O)CCc1cc2cc(Oc3ccccc3)ccc2nc1N [compound 10],
,5%,81%,,,Nc1nc2ccc(Oc3ccccc3)cc2cc1CCC(=O)NCC1CCCCC1 [compound 11],
−2%,0.8%,19%,,,CCCCNC(=O)CCc1cc2cc(Oc3ccccc3)ccc2nc1N [compound 12],
−14%,−27%,−15%,,,Nc1nc2ccc(Oc3ccccc3)cc2cc1CCC(=O)N[C@H](CO)CC1CCCCC1 [compound 14],
19%,20%,46%,,,Nc1nc2ccc(Oc3ccccc3)cc2cc1CCCC(=O)NC12CC3CC(CC(C3)C1)C2 [compound 17],
29%,26%,36%,,,CN(C(=O)CCCc1cc2cc(Oc3ccccc3)ccc2nc1N)C1CCCCC1 [compound 18],
−15%,,24%,,,COC(=O)[C@H]1CC[C@@H](NC(=O)CCC(c2cc3cc(Oc4ccccc4)ccc3nc2N)C2CCCCC2)CC1 (stereo partly drawn) [compound 19],
−8%,−11%,34%,,,COC(=O)[C@H]1CC[C@H](NC(=O)CCC(c2cc3cc(Oc4ccccc4)ccc3nc2N)C2CCCCC2)CC1 (stereo partly drawn) [compound 20],
0.5%,−1%,10%,,,Nc1nc2ccc(Oc3ccccc3)cc2cc1C(CCC(=O)N[C@H]1CC[C@@H](C(=O)O)CC1)C1CCCCC1 (stereo partly drawn) [compound 21],
0.6%,−19%,−3%,,,Nc1nc2ccc(Oc3ccccc3)cc2cc1C(CCC(=O)N[C@H]1CC[C@H](C(=O)O)CC1)C1CCCCC1 (stereo partly drawn) [compound 22],
,,,91%,410 nM,Nc1nc2ccc(Oc3ccccc3)cc2cc1C(CCC(=O)N(Cc1ncc[nH]1)C1CCCCC1)C1CCOCC1 (stereo not drawn) [compound 30],
,,,59%,740 nM,Nc1nc2ccc(Oc3ccccc3)cc2cc1C(CCC(=O)NCc1nnnn1Cc1ccccc1)C1CCOCC1 (stereo not drawn) [compound 31],inhibition at 0.3 µM (human BACE-1): 32%
,,,59%,610 nM,Nc1nc2ccc(Oc3ccccc3)cc2cc1C(CCC(=O)NCC1CC1)C1CCOCC1 (stereo not drawn) [compound 36],inhibition at 0.3 µM (human BACE-1): 49%
,,,81%,580 nM,Nc1nc2ccc(Oc3ccccc3)cc2cc1C(CCC(=O)N(CCN1CCCC1)C1CCCCC1)C1CCCCC1 (stereo not drawn) [compound 37],inhibition at 0.3 µM (human BACE-1): 27%
,,,,,CN(Cc1ccccc1)C(=O)CCC(c1cc2cc(Oc3ccccc3)ccc2nc1N)C1CCCCC1 (stereo not drawn) [compound 38],% Inhibition 0.3 μM (human BACE-1): 8%; % Inhibition 1 μM (human BACE-1): 9%

% Inhibition (Example 10) @ 0.3 μM (β-secretase (BACE)),% Inhibition (Example 10) @ 1 μM (β-secretase (BACE)),% Inhibition (Example 10) @ 3 μM (β-secretase (BACE)),inhibition at 1 µM (human BACE-1),IC50 (human BACE-1),Structure (SMILES),other results
,,,,490 nM,Cn1ccnc1CN(C(=O)CCC(c1cc2cc(Oc3ccccc3)ccc2nc1N)C1CCCCC1)C1CCCCC1 (stereo not drawn) [compound 39],inhibition at 0.3 µM (human BACE-1): 16%
,,,,650 nM,CN(CC1CCCCC1)C(=O)CCC(c1cc2cc(Oc3ccccc3)ccc2nc1N)C1CCCCC1 (stereo not drawn) [compound 40],% Inhibition 0.3 μM (human BACE-1): 13%; % Inhibition 1 μM (human BACE-1): 54%
,,,79%,470 nM,Nc1nc2ccc(Oc3ccccc3)cc2cc1C(CCC(=O)N(c1ncc[nH]1)C1CCCCC1)C1CCCCC1 (stereo not drawn) [compound 41],inhibition at 0.3 µM (human BACE-1): 11%
,,,58%,810 nM,Nc1nc2ccc(Oc3ccccc3)cc2cc1C(CCC(=O)N(CCO)C1CCCCC1)C1CCCCC1 (stereo not drawn) [compound 42],
,,,88%,650 nM,Cn1ccnc1CN(CC(C)(C)C)C(=O)CCC(c1cc2cc(Oc3ccccc3)ccc2nc1N)C1CCCCC1 (stereo not drawn) [compound 43],
,,,46%,1100 nM,CC(C)(C)OC[C@@H](NC(=O)CC[C@H](c1cc2cc(Oc3ccccc3)ccc2nc1N)C1CCCCC1)C(=O)N1CCOCC1 [compound 45],
,,,,740 nM,Nc1nc2ccc(Oc3ccccc3)cc2cc1C(CCC(=O)N(CCO)C1CCCCC1)C1CCOCC1 (stereo not drawn) [compound 50],% Inhibition 1 μM (human BACE-1): 87%
,,,90%,460 nM,Nc1nc2ccc(Oc3ccccc3)cc2cc1C(CCC(=O)N(Cc1c[nH]cn1)C1CCCCC1)C1CCOCC1 (stereo not drawn) [compound 53],
,,,85%,450 nM,Cn1ccnc1CN(C(=O)CCC(c1cc2cc(Oc3ccccc3)ccc2nc1N)C1CCOCC1)C1CCCCC1 (stereo not drawn) [compound 54],
,,,83%,420 nM,Cn1ccnc1CN(CC(C)(C)C)C(=O)CCC(c1cc2cc(Oc3ccccc3)ccc2nc1N)C1CCOCC1 (stereo not drawn) [compound 55],
,,,,,Cn1ccnc1CN(CCC(C)(C)C)C(=O)CCC(c1cc2cc(Oc3ccccc3)ccc2nc1N)C1CCOCC1 (stereo not drawn) [compound 56],% Inhibition 1 μM (human BACE-1): 94%
,,,,,CC(C)(C)CCN(Cc1ncc[nH]1)C(=O)CCC(c1cc2cc(Oc3ccccc3)ccc2nc1N)C1CCOCC1 (stereo not drawn) [compound 57],% Inhibition 1 μM (human BACE-1): 93%
,,,,,CC(C)(C)CN(Cc1ncc[nH]1)C(=O)CCC(c1cc2cc(Oc3ccccc3)ccc2nc1N)C1CCOCC1 (stereo not drawn) [compound 58],% Inhibition 1 μM (human BACE-1): 88%
,,,,,CC(C)(C)CN(Cc1c[nH]cn1)C(=O)CCC(c1cc2cc(Oc3ccccc3)ccc2nc1N)C1CCOCC1 (stereo not drawn) [compound 59],% Inhibition 1 μM (human BACE-1): 78%
24%,−8%,17%,,,Cc1ccccc1N1CCN(C(=O)CCc2cc3cc(Oc4ccccc4)ccc3nc2N)CC1 [compound 75],
28%,,16%,,,Nc1nc2ccc(Oc3ccccc3)cc2cc1CCC(=O)N1CCN(c2cccc(F)c2)CC1 [compound 76],
28%,19%,36%,,,C=CCC(c1cc2cc(Oc3ccccc3)ccc2nc1N)C1CCCCC1 (stereo not drawn) [compound 503],
21%,21%,18%,,,COC(=O)CCCc1cc2cc(Oc3ccccc3)ccc2nc1N [compound 504],

Structure (SMILES),% Inhibition (Example 10) @ 0.3 μM (β-secretase (BACE)),% Inhibition (Example 10) @ 1 μM (β-secretase (BACE)),% Inhibition (Example 10) @ 3 μM (β-secretase (BACE)),inhibition at 1 µM (human BACE-1),IC50 (human BACE-1),other results
Nc1nc2ccc(Oc3ccccc3)cc2cc1C(CCC(=O)NC1CN2CCC1CC2)C1CCOCC1 (stereo not drawn) [compound 51],,,,56%,1200 nM,
